Source: patent publication US20170022171A1, “2,5-DISUBSTITUTED CYCLOPENTANECARBOXYLIC ACIDS AND THEIR USE” (Bayer Pharma Aktiengesellschaft, priority 2014, published 2017)

Assays:
Assay type in all cases: biochemical
MMP-16 = biological target: T1, MMP-16 (Homo sapiens, UniProt P51512); test: In vitro MMP-16 inhibition test
T1 construct: purchased R&D Systems 1785-MP
Text: (§1) The MMP-mediated amidolytic cleavage of a suitable peptide substrate leads to an increase in fluorescent light here too. The signal intensity of the fluorescent light is directly proportional to the enzyme activity. The active concentration of a test compound at which half the enzyme is inhibited (50% signal intensity of the fluorescent light) is reported as the IC50 value.
Recombinant MMP-16 (from R&D Systems, 1785-MP) is enzymatically activated in accordance with the manufacturer's instructions using recombinant furin (from R&D Systems, 1503-SE). 1 μl of the test compound to be analysed (as a solution in DMSO, suitable concentrations e.g. 1 nM to 30 μM) is pipetted into 24 μl of activated enzyme (final concentration e.g. 1 nM) in reaction buffer (50 mM Tris/HCl pH 7.5, 10 mM CaCl2, 150 mM NaCl, 0.05% Brij®-35) in a white 384-hole microtiter plate (MTP). The enzymatic reaction is started by adding the intramolecularly quenched Mca-Lys-Pro-Leu-Gly-Leu-Dpa(Dnp)-Ala-Arg-NH2 substrate (final concentration, for example, 5 μM; R&D Systems, ES-010), so as to result in a total test volume of 50 The course of the MMP-16 reaction is measured by measuring the fluorescence intensity (excitation 320 nm, emission 410 nm) over a suitable period of time (for example over 120 min at a temperature of 32° C.).

MMP-1 = biological target: T2, MMP-1 (Homo sapiens, UniProt P03956); test: In vitro MMP-1 inhibition test
T2 construct: purchased R&D Systems 901-MP
T2 sequence (P03956 100-469): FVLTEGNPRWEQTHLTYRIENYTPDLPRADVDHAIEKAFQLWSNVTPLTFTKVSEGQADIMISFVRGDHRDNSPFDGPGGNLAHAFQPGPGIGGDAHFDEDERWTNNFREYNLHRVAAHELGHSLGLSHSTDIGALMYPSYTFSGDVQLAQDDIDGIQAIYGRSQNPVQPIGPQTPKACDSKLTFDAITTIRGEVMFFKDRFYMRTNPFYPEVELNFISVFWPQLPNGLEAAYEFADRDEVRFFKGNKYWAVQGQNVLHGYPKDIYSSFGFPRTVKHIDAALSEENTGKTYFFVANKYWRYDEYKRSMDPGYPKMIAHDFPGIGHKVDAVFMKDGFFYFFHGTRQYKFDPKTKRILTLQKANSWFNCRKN
Text: as §1
(§2) Recombinant MMP-1 (from R&D Systems, 901-MP) is chemically activated in accordance with the manufacturer's instructions using APMA. 1 μl of the test compound to be analysed (as a solution in DMSO, suitable concentrations, for example, 1 nM to 30 μM) is pipetted into 24 μl of activated enzyme (final concentration, for example, 2 nM) in reaction buffer (50 mM Tris/HCl pH 7.5, 10 mM CaCl2, 150 mM NaCl, 0.05% Brij®-35) in a white 384-hole microtiter plate (MTP). The enzymatic reaction is started by adding the intramolecularly quenched Mca-Pro-Leu-Gly-Leu-Dpa(Dnp)-Ala-Arg-NH2 substrate (final concentration, for example, 10 μM; R&D Systems, ES-001), so as to result in a total test volume of 50 μl. The course of the MMP-1 reaction is measured by measuring the fluorescence intensity (excitation 320 nm, emission 410 nm) over a suitable period of time (for example over 120 min at a temperature of 32° C.).

MMP-3 = biological target: T3, MMP-3 (Homo sapiens, UniProt P08254); test: In vitro MMP-3 inhibition test
T3 construct: purchased R&D Systems 513-MP
T3 sequence (P08254 100-477): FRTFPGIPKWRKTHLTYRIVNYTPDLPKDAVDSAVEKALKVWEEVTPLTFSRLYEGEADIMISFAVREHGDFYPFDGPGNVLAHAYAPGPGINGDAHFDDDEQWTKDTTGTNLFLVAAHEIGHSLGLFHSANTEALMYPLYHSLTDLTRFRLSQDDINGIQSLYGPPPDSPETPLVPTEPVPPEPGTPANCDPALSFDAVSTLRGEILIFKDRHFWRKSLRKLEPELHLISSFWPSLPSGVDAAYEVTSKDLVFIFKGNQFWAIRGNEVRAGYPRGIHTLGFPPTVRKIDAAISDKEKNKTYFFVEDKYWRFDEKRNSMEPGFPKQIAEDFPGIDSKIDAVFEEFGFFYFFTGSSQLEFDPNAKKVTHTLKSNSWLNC
Text: as §1
as §2, with “MMP-3” for “MMP-1”, “513-MP)” for “901-MP)”, “Mca-Arg-Pro-Lys-Pro-Val-Glu-Nval-Trp-Arg-Lys(Dnp)-NH2” for “Mca-Pro-Leu-Gly-Leu-Dpa(Dnp)-Ala-Arg-NH2”, “ES-002),” for “ES-001),”, “50” for “50 μl.”

T1 sequence (P51512 120-564 limits assumed): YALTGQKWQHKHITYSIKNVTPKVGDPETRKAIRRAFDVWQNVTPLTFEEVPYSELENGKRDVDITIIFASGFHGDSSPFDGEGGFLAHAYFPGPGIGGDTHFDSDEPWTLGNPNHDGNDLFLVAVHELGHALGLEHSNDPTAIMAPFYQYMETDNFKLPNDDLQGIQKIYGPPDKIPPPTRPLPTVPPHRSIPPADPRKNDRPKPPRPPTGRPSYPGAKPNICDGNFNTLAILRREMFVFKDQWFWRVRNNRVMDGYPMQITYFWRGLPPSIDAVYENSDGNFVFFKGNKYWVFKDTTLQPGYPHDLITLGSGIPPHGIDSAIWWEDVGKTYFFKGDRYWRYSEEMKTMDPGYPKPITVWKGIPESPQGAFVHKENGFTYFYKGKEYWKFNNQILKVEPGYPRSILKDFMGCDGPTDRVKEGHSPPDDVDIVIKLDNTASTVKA

Row | IC50 (MMP-16) [µM] | IC50 (MMP-1) [µM] | IC50 (MMP-3) [µM] | Compound
1 | 0.11 | 3.1 | 0.15 | Cc1ccc2nnn(C[C@H]3CC[C@@H](C(=O)c4ccc(OCc5ccccc5)cc4)[C@@H]3C(=O)O)c(=O)c2c1 (single isomer, unassigned) [Example 92, (+)-(1RS,2RS,5SR)-2-[4-(Benzyloxy)benzoyl]-5-[(6-methyl-4-oxo-1,2,3-benzotriazin-3(4H)-yl)methyl]cyclopentanecarboxylic acid]
2 | 4 | > 40 | 1 | O=C(O)[C@H]1[C@H](Cn2nnc3ccc(C(F)(F)F)cc3c2=O)CC[C@@H]1C(=O)c1ccc(OCc2cccc(C(F)(F)F)c2)cc1 (racemic) [Example 18, (+/−)-(1RS,2SR,5RS)-2-{[4-Oxo-6-(trifluoromethyl)-1,2,3-benzotriazin-3(4H)-yl]methyl}-5-(4-{[3-(trifluoromethyl)benzyl]oxy}benzoyl)cyclopentanecarboxylic acid]
3 | 0.19 | 12 | 0.45 | COc1cccc(COc2ccc(C(=O)[C@H]3CC[C@@H](Cn4nnc5ccc(C)cc5c4=O)[C@@H]3C(=O)O)cc2)c1 (racemic) [Example 106, (+/−)-(1RS,2RS,5SR)-2-{4-[(3-Methoxybenzyl)oxy]benzoyl}-5-[(6-methyl-4-oxo-1,2,3-benzotriazin-3(4H)-yl)methyl]cyclopentanecarboxylic acid]
4 | 14 | 9.7 | 0.34 | Cc1ccc2nnn(C[C@@H]3CC[C@H](C(=O)c4ccc(OCc5cccc(Cl)c5)cc4)[C@H]3C(=O)O)c(=O)c2c1 (racemic) [Example 103, (+/−)-(1RS,2RS,5SR)-2-{4-[(3-Chlorobenzyl)oxy]benzoyl}-5-[(6-methyl-4-oxo-1,2,3-benzotriazin-3(4H)-yl)methyl]cyclopentanecarboxylic acid]
5 | 0.67 | 2.5 | 0.096 | CCCCCSc1ccc(C(=O)[C@H]2CC[C@@H](Cn3nnc4ccc(C(F)(F)F)cc4c3=O)[C@@H]2C(=O)O)cc1 (racemic) [Example 88, (+/−)-(1RS,2SR,5RS)-2-{[4-Oxo-6-(trifluoromethyl)-1,2,3-benzotriazin-3(4H)-yl]methyl}-5-[4-(pentylsulphanyl)benzoyl]cyclopentanecarboxylic acid]
6 | 0.88 | 14 | 0.88 | Cc1ccc2nnn(C[C@H]3CC[C@@H](C(=O)c4ccc(OCc5cccc(C(F)(F)F)c5)cc4)[C@@H]3C(=O)O)c(=O)c2c1 (single isomer, unassigned) [Example 101, (+)-(1RS,2SR,5RS)-2-[(6-Methyl-4-oxo-1,2,3-benzotriazin-3(4H)-yl)methyl]-5-(4-{[3-(trifluoromethyl)benzyl]oxy}benzoyl)cyclopentanecarboxylic acid]
7 | 3.6 | 21 | 0.17 | O=C(O)[C@@H]1[C@@H](Cn2nnc3ccc(C(F)(F)F)cc3c2=O)CC[C@H]1C(=O)c1ccc(SCc2ccccc2)cc1 (single isomer, unassigned) [Example 75, (+)-(1RS,2RS,5SR)-2-[4-(Benzylsulphanyl)benzoyl]-5-{[4-oxo-6-(trifluoromethyl)-1,2,3-benzotriazin-3(4H)-yl]methyl}cyclopentanecarboxylic acid]
8 | 0.65 | 11 | 0.73 | COc1cccc(COc2ccc(C(=O)[C@@H]3CC[C@H](Cn4nnc5ccc(C)cc5c4=O)[C@H]3C(=O)O)cc2)c1 (single isomer, unassigned) [Example 107, (+)-(1RS,2RS,5SR)-2-{4-[(3-Methoxybenzyl)oxy]benzoyl}-5-[(6-methyl-4-oxo-1,2,3-benzotriazin-3(4H)-yl)methyl]cyclopentanecarboxylic acid]
9 | 1.7 | 7.1 | 0.35 | Cc1cccc(COc2ccc(C(=O)[C@@H]3CC[C@H](Cn4nnc5ccc(C(F)(F)F)cc5c4=O)[C@H]3C(=O)O)cc2)c1 (single isomer, unassigned) [Example 16, (+)-(1RS,2RS,5SR)-2-{4-[(3-Methylbenzyl)oxy]benzoyl}-5-{[4-oxo-6-(trifluoromethyl)-1,2,3-benzotriazin-3(4H)-yl]methyl}cyclopentanecarboxylic acid]
10 | 0.086 | 2.5 | 0.028 | O=C(O)[C@H]1[C@H](Cn2nnc3ccc(C(F)(F)F)cc3c2=O)CC[C@@H]1C(=O)c1ccc(OCc2ccc(F)cc2)cc1 (racemic) [Example 12, (+/−)-(1RS,2RS,5SR)-2-{4-[(4-Fluorobenzyl)oxy]benzoyl}-5-{[4-oxo-6-(trifluoromethyl)-1,2,3-benzotriazin-3(4H)-yl]methyl}cyclopentanecarboxylic acid]
11 | 0.29 | 2.3 | 0.063 | O=C(O)[C@@H]1[C@@H](Cn2nnc3ccc(C(F)(F)F)cc3c2=O)CC[C@H]1C(=O)c1ccc(OCc2ccc(Cl)cc2)cc1 (single isomer, unassigned) [Example 25, (+)-(1RS,2RS,5SR)-2-{4-[(4-Chlorobenzyl)oxy]benzoyl}-5-{[4-oxo-6-(trifluoromethyl)-1,2,3-benzotriazin-3(4H)-yl]methyl}cyclopentanecarboxylic acid]
12 | 14 | 27 | 1.3 | (+)-(1RS,2RS,5SR)-2-{4-[Cyclohexyl)methyl)sulphanyl]benzoyl}-5-{[4-oxo-6-(trifluoromethyl)-1,2,3-benzotriazin-3(4H)-yl]methyl}cyclopentanecarboxylic acid [Example 86]
13 | 1.7 | 5.7 | 0.19 | Cc1ccc2nnn(C[C@@H]3CC[C@H](C(=O)c4ccc(OCc5ccccc5)cc4)[C@H]3C(=O)O)c(=O)c2c1 (racemic) [Example 91, (+/−)-(1RS,2RS,5SR)-2-[4-(Benzyloxy)benzoyl]-5-[(6-methyl-4-oxo-1,2,3-benzotriazin-3(4H)-yl)methyl]cyclopentanecarboxylic acid]
14 | 14 | > 40 | 0.42 | O=C(O)[C@H]1[C@H](Cn2nnc3ccc(C(F)(F)F)cc3c2=O)CC[C@@H]1C(=O)c1ccc(OCCCc2ccccc2)cc1 (racemic) [Example 39, (+/−)-(1RS,2SR,5RS)-2-{[4-Oxo-6-(trifluoromethyl)-1,2,3-benzotriazin-3(4H)-yl]methyl}-5-[4-(3-phenylpropoxy)benzoyl]cyclopentanecarboxylic acid]
15 | 5.5 | 2.5 | 0.15 | O=C(O)[C@@H]1[C@@H](Cn2nnc3ccc(C(F)(F)F)cc3c2=O)CC[C@H]1C(=O)c1ccc(SCc2ccc(Cl)c(Cl)c2)cc1 (single isomer, unassigned) [Example 80, (+)-(1RS,2RS,5SR)-2-{4-[(3,4-Dichlorobenzyl)sulphanyl]benzoyl}-5-{[4-oxo-6-(trifluoromethyl)-1,2,3-benzotriazin-3(4H)-yl]methyl}cyclopentanecarboxylic acid]
